Among the data in patent US20230339851A1, “CXCR6 SULFONAMIDE COMPOUNDS” (CHEMOCENTRYX, INC., priority 2022, published 2023) are IC50 values, retold here.

T1 sequence (O00574 whole entry): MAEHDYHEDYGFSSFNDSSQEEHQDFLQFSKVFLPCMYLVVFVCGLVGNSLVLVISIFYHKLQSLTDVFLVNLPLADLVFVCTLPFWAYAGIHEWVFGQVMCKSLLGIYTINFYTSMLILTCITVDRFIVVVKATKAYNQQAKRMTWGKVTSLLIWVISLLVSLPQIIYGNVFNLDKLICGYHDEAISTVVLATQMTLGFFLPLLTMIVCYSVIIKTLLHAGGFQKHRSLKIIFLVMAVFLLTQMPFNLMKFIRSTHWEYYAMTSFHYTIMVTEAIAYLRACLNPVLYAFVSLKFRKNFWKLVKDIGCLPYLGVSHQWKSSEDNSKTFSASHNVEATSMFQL

The assay concerns the target T1, human CXCR6 (Homo sapiens, UniProt O00574).
T1 construct: expressed in transfected cells
Put plainly: Radioligand Binding Assay (125I-CXCL16 displacement). Particulars: L1.2 cells stably transfected with human CXCR6 cDNA, 0.1 nM 125I-CXCL16, 4° C., three-hour incubation; read-out: Potency (IC50). The procedure, abridged: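 Displacement of 0.1 nM 125I-CXCL16 from human CXCR6 stably expressed in L1.2 cells was measured after a 3 h, 4 °C incubation in HBSS with 0.1% BSA. Filter-bound cpm were counted, and IC50 values came from a 3-parameter nonlinear fit.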
Turning to `CCOc1cc(NS(=O)(=O)c2ccc(NC(=O)[C@@H](O)C(C)C)cc2OCC)ccc1Cl` [Example 1.210], the IC50 lay within 200 to 750 nM.

As for `CCOc1cc(NC(=O)[C@@H](O)C(C)C)ccc1S(=O)(=O)Nc1ccc(F)c(C2CC2)c1` [Example 1.211], the concentration for half-maximal inhibition (IC50) was at most 200 nM.

For `CCOc1cc(NC(C)=O)ccc1S(=O)(=O)Nc1cccc(C(F)(F)F)c1` [Example 1.212], the IC50 fell in the range of 2000 to 20000 nM. Next, `CCOc1cc(NC(=O)[C@@H](CO)C(C)C)ccc1S(=O)(=O)Nc1ccc(C)c(F)c1` [Example 1.213]: 200 to 750 nM.

As to `COc1cc(NC(=O)CC2CCNC2)ccc1S(=O)(=O)Nc1cccc(C(F)(F)F)c1` (centres unmarked) [Example 1.214], the 50% inhibitory concentration (IC50) lay in the range of 2000 to 20000 nM. Next, `CCOc1cc(NC(=O)C2CCOCC2(C)C)ccc1S(=O)(=O)Nc1cccc(OC(F)(F)F)c1` (centres unmarked) [Example 1.215]: 200 to 750 nM. Regarding `CCOc1cc(NC(=O)[C@@H](O)C(C)C)ccc1S(=O)(=O)Nc1cccc(Cl)c1OC` [Example 1.216], the IC50 was in the range of 2000 to 20000 nM. In the case of `CCOc1cc(NC(=O)C(C(=O)O)C(C)C)ccc1S(=O)(=O)Nc1cccc(OC(F)(F)F)c1` (centres unmarked) [Example 1.217], the IC50 was at most 200 nM. Next, `CCOc1cc(NC(=O)C(C(=O)O)C2CCC2)ccc1S(=O)(=O)Nc1cccc(OC(F)(F)F)c1` (centres unmarked) [Example 1.218]: at most 200 nM; `CCOc1cc(NC(=O)[C@@H](O)c2ccccc2)ccc1S(=O)(=O)Nc1ccc(F)c(OC(F)(F)F)c1` [Example 1.220]: at most 200 nM; `CCOc1cc(NC(=O)[C@@H](CO)c2ccccc2)ccc1S(=O)(=O)Nc1cccc(Cl)c1C` [Example 1.221]: 2000 to 20000 nM. For the compound `CCOc1cc(NC(=O)C(O)C2CCC2)ccc1S(=O)(=O)Nc1cccc(OC(F)(F)F)c1` (centres unmarked) [Example 1.222], the half-maximal inhibitory concentration (IC50) is at most 200 nM. On to `CCOc1cc(NC(=O)[C@@H](O)C(C)C)ccc1S(=O)(=O)Nc1ccc(Cl)c(C)c1` [Example 1.223], for which the 50% inhibitory concentration (IC50) is at most 200 nM. `COc1cc(NC(=O)c2ccnn2C)ccc1S(=O)(=O)Nc1ccc(C(F)(F)F)cc1` [Example 1.224]: the concentration for half-maximal inhibition (IC50) was in the range of 200 to 750 nM.

`CCc1cc(NC(=O)c2ccns2)ccc1S(=O)(=O)Nc1cccc(C(F)(F)F)c1` [Example 1.225]: the half-maximal inhibitory concentration (IC50) was 200 to 750 nM. Consider `CCOc1cc(NC(=O)[C@H]2CCC=C[C@H]2O)ccc1S(=O)(=O)Nc1cccc(OC(F)(F)F)c1` [Example 1.226], for which the IC50 was 200 to 750 nM.

In the case of `CCOc1cc(NC(=O)[C@H]2CC[C@](C)(O)CC2)ccc1S(=O)(=O)Nc1cccc(OC(F)(F)F)c1` [Example 1.227], the concentration for half-maximal inhibition (IC50) fell in the range of 750 to 2000 nM.

Take `COc1cc(NC(=O)c2ccnn2C)ccc1S(=O)(=O)Nc1ccc(OC(F)(F)F)cc1` [Example 1.228]: the IC50 lay within 200 to 750 nM. Next, `CCOc1cc(NC(=O)C(CC2CC=CCC2)C(=O)O)ccc1S(=O)(=O)Nc1cccc(OC(F)(F)F)c1` (centres unmarked) [Example 1.229]: at most 200 nM; `CCOc1cc(NC(=O)CC(O)C2CCCOC2)ccc1S(=O)(=O)Nc1cccc(OC(F)(F)F)c1` (centres unmarked) [Example 1.230]: 750 to 2000 nM. Next, `COc1cc(NC(=O)c2ccnn2C)ccc1S(=O)(=O)Nc1cccc(C(C)(C)C)c1` [Example 1.231]: 200 to 750 nM; `CCc1cc(NC(=O)c2ccnn2C)ccc1S(=O)(=O)Nc1cccc(C(F)(F)F)c1` [Example 1.232]: at most 200 nM.

`CCOc1cc(NC(=O)[C@@H](N)c2ccccc2)ccc1S(=O)(=O)Nc1ccc(Cl)c(OC(F)(F)F)c1` [Example 1.234]: the 50% inhibitory concentration (IC50) was at most 200 nM. Next, `COc1cc(NC(=O)[C@@H](CO)c2ccccc2)ccc1S(=O)(=O)Nc1cccc(OC(F)(F)F)c1` [Example 1.235]: 200 to 750 nM; `CCOc1cc(NC(=O)CC(O)c2cccnc2)ccc1S(=O)(=O)Nc1cccc(OC(F)(F)F)c1` (centres unmarked) [Example 1.236]: 750 to 2000 nM.

As for `CCn1nccc1C(=O)Nc1ccc(S(=O)(=O)Nc2cccc(C(F)(F)F)c2)c(OC)c1` [Example 1.238], the IC50 is 200 to 750 nM. For `COc1cc(NC(=O)c2ccnn2C)ccc1S(=O)(=O)Nc1cccc(OC(F)(F)F)c1` [Example 1.239], the IC50 was at most 200 nM. Next, `COc1cc(NC(=O)CC2COCCN2)ccc1S(=O)(=O)Nc1cccc(C(F)(F)F)c1` (centres unmarked) [Example 1.240]: 2000 to 20000 nM; `CCOc1cc(NC(=O)[C@@H](NC(=O)CC)C(C)C)ccc1S(=O)(=O)Nc1cccc(OC(F)(F)F)c1` [Example 1.241]: at most 200 nM; `COc1cc(NC(=O)c2ccnn2C)ccc1S(=O)(=O)Nc1cccc(C)c1` [Example 1.242]: 2000 to 20000 nM. With `CCOc1cc(NC(=O)[C@@H](N)C(C)CC)ccc1S(=O)(=O)Nc1cccc(OC(F)(F)F)c1` (some centres unmarked) [Example 1.243], the 50% inhibitory concentration (IC50) was at most 200 nM. Next, `CCOc1cc(NC(=O)[C@@H](O)C(C)C)ccc1S(=O)(=O)Nc1ccc(C(F)(F)F)cc1` [Example 1.244]: 200 to 750 nM; `CCOc1cc(NC(=O)C(C(N)=O)C2CCCC2)ccc1S(=O)(=O)Nc1cccc(OC(F)(F)F)c1` (centres unmarked) [Example 1.245]: at most 200 nM; `CCOc1cc(NC(=O)C(O)C2C=CCCC2)ccc1S(=O)(=O)Nc1cccc(OC(F)(F)F)c1` (centres unmarked) [Example 1.246]: at most 200 nM. Consider `COc1cc(NC(=O)c2ccnn2C)ccc1S(=O)(=O)Nc1ccc(Cl)c(Cl)c1` [Example 1.247], for which the IC50 lay in the range of 750 to 2000 nM. Next, `COc1cc(NC(=O)c2ccnn2C)ccc1S(=O)(=O)Nc1ccc(F)c(C(F)(F)F)c1` [Example 1.248]: 750 to 2000 nM. Next, `Cc1cc(NC(=O)C2CCOC2)ccc1S(=O)(=O)Nc1cccc(C(F)(F)F)c1` (centres unmarked) [Example 1.249]: 2000 to 20000 nM; `CCOc1cc(NC(=O)[C@H]2CC(C)=C(C)C[C@@H]2CO)ccc1S(=O)(=O)Nc1cccc(OC(F)(F)F)c1` [Example 1.250]: at most 200 nM. `Cc1ccc(C(=O)Nc2ccc(S(=O)(=O)Nc3cccc(C(F)(F)F)c3)c(C)c2)cc1` [Example 1.251]: the half-inhibitory concentration (IC50) lay in the range of 750 to 2000 nM.

Regarding `Cc1cc(NC(=O)c2cnco2)ccc1S(=O)(=O)Nc1cccc(C(F)(F)F)c1` [Example 1.252], the IC50 lay in the range of 750 to 2000 nM. Next, `CCOc1cc(NC(=O)CC(C)O)ccc1S(=O)(=O)Nc1cccc(OC(F)(F)F)c1` (centres unmarked) [Example 1.253]: 200 to 750 nM. Take `COc1cc(NC(=O)c2cc(C)nn2C)ccc1S(=O)(=O)Nc1cccc(C(F)(F)F)c1` [Example 1.254]: the IC50 was 200 to 750 nM. For the compound `Cc1cc(NC(=O)c2cnoc2C)ccc1S(=O)(=O)Nc1cccc(C(F)(F)F)c1` [Example 1.255], the half-maximal inhibitory concentration (IC50) was 200 to 750 nM. Next, `Cn1nccc1C(=O)Nc1ccc(S(=O)(=O)Nc2cccc(C(F)(F)F)c2)c(F)c1` [Example 1.256]: 2000 to 20000 nM. Next, `CCOc1cc(NC(=O)C2c3ccccc3CC2O)ccc1S(=O)(=O)Nc1cccc(OC(F)(F)F)c1` (centres unmarked) [Example 1.257]: at most 200 nM; `CCOc1cc(NC(=O)[C@@H](CO)c2ccccc2)ccc1S(=O)(=O)Nc1ccc(Cl)c(C)c1` [Example 1.258]: 200 to 750 nM. Next, `CCOc1cc(NC(=O)[C@@H](O)[C@@H](C)CC)ccc1S(=O)(=O)Nc1ccc(F)c(OC(F)(F)F)c1` [Example 1.259]: at most 200 nM.

In the case of `CCOc1cc(NC(=O)c2cccn(C)c2=O)ccc1S(=O)(=O)Nc1cccc(OC(F)(F)F)c1` [Example 1.260], the half-inhibitory concentration (IC50) was 2000 to 20000 nM. As to `CCOc1cc(NC(=O)[C@@H](O)C(C)C)ccc1S(=O)(=O)Nc1cccc(C(C)(F)F)c1` [Example 1.261], the IC50 is at most 200 nM. Next, `CCOc1cc(NC(=O)[C@@H](O)c2ccccc2)ccc1S(=O)(=O)Nc1ccc(Cl)c(OC(F)(F)F)c1` [Example 1.262]: at most 200 nM; `CCOc1cc(NC(=O)[C@@H](O)C(C)C)ccc1S(=O)(=O)Nc1cccc(C(C)C)c1` [Example 1.263]: at most 200 nM. With `CC(=O)Nc1ccc(S(=O)(=O)Nc2cccc(C(F)(F)F)c2)c(OC(F)(F)F)c1` [Example 1.264], the IC50 was in the range of 2000 to 20000 nM. On to `Cc1cc(NC(=O)C2(C)CCCCC2)ccc1S(=O)(=O)Nc1cccc(C(F)(F)F)c1` [Example 1.265], for which the concentration for half-maximal inhibition (IC50) lay in the range of 2000 to 20000 nM. On to `Cc1cc(NC(=O)[C@@H](O)c2ccccc2)ccc1S(=O)(=O)Nc1cccc(OC(F)(F)F)c1` [Example 1.266], for which the IC50 is 200 to 750 nM.

In the case of `CCOc1cc(NC(=O)[C@@H](O)C(C)C)ccc1S(=O)(=O)Nc1cccc(OC(F)(F)F)c1C` [Example 1.267], the 50% inhibitory concentration (IC50) lay in the range of 2000 to 20000 nM. Next, `Cc1cc(NC(=O)c2ccon2)ccc1S(=O)(=O)Nc1cccc(C(F)(F)F)c1` [Example 1.268]: 750 to 2000 nM. Take `CCOc1cc(NC(=O)C2CCCC(=O)C2)ccc1S(=O)(=O)Nc1cccc(OC(F)(F)F)c1` (centres unmarked) [Example 1.269]: the concentration for half-maximal inhibition (IC50) was in the range of 200 to 750 nM.

As to `CCOc1cc(NC(=O)[C@@H](CO)c2ccccc2)ccc1S(=O)(=O)Nc1cccc(C(C)(C)O)c1` [Example 1.270], the IC50 lay within 2000 to 20000 nM. As to `Cc1cc(NC(=O)C2CCCO2)ccc1S(=O)(=O)Nc1cccc(C(F)(F)F)c1` (centres unmarked) [Example 1.271], the 50% inhibitory concentration (IC50) lay within 2000 to 20000 nM. Next, `CCOc1cc(NC(=O)[C@@H](CO)c2ccccc2)ccc1S(=O)(=O)Nc1cccc(Cl)c1Cl` [Example 1.272]: 750 to 2000 nM. Next, `COc1cc(NC(=O)C(C)C2CCCCC2)ccc1S(=O)(=O)Nc1cccc(C(F)(F)F)c1` (centres unmarked) [Example 1.273]: 750 to 2000 nM; `CCOc1cc(NC(=O)[C@@H](CO)c2ccccc2)ccc1S(=O)(=O)Nc1cccc(OC(F)(F)F)c1C` [Example 1.274]: 2000 to 20000 nM; `CCOc1cc(NC(=O)[C@@H](NC(C)=O)C(C)C)ccc1S(=O)(=O)Nc1ccc(C)c(OC(F)(F)F)c1` [Example 1.275]: at most 200 nM. With `CCOc1cc(NC(=O)[C@@H](O)c2ccccc2Cl)ccc1S(=O)(=O)Nc1cccc(OC(F)(F)F)c1` [Example 1.276], the IC50 is at most 200 nM. Next, `CCOc1cc(NC(=O)[C@@H](O)C(C)C)ccc1S(=O)(=O)Nc1cccc(C(C)(C)C)c1` [Example 1.277]: 200 to 750 nM.

For orientation: IC50 means the concentration that inhibits the measured activity by half.
